Assay results: patent US20140079836A1, “METHODS AND COMPOSITIONS FOR ALTERING HEALTH, WELLBEING, AND LIFESPAN” (LifeSpan Extension, LLC, priority 2008, published 2014)

Test system: entire human genome (gene expression profile)
Assay: Agilent whole human genome array, skin fibroblasts AG07999, antioxidant with or without UV
Format: cell-based
Experimental: Cell cultures: A human skin fibroblast cell culture was obtained through the Coriell Cell Repository from the National Institute on Aging Cell Repository. […] Culture media: Cells were grown in Minimal Essential Medium supplemented with 10% fetal bovine serum, 2 mM L-glutamine, 2 mM Glutamax I. […] All cultures were incubated at 37° C. with 5% CO2 in a humidified chamber. […] On Day 5 after 24 hours of exposure to test conditions, the cells were isolated and the RNA isolated using the RT^2q PCR-grade RNA isolation kit (Superarray Bioscience Corporation). […] Analysis of Agilent Whole Human Genome Arrays: RNA taken from both samples was sent to Cogenics, Inc. Morrisville, N.C. Cogenics, Inc. is a leading, state-of-the-art, microarray service provider that facilitates and accelerates transcriptome profiling and gene discovery processes for industrial and academic researchers. Cogenics' procedure for processing samples is as follows: RNA samples are received and analyzed by Cogenics, Inc. using rigorous standardized procedures that are designed to ensure quality and chain of custody. Each sample undergoes a thorough quality analysis using an Agilent Bioanalyzer microfluidics device, and is precisely quantified using a Nanodrop-1000 spectro-photometer. When the Agilent Oligonucleotide Microarray Platform is utilized, samples are fluorescently labeled using the Agilent Low-Input Linear Amplification Kit. Upon completion of this process, the labeled cRNA products are assessed using the same processes described above. These labeled samples are then fragmented and hybridized to oligonucleotide microarrays. The microarrays are washed and then scanned using an Agilent DNA Microarray Scanner with Sure Scan technology. Data is extracted from the images produced by the scanner using Agilent's Feature Extraction software. At this point, the scanned image is visually inspected for defects, and the extracted data is statistically analyzed to ensure quality of the assay. Extracted data and images can be loaded into Rosetta Resolver Gene Expression Data Analysis System for in-depth analysis, both from a quality standpoint, as well as to develop biological understanding. […] A table was generated and provided as a tab-delimited text file. This file will contain the log ratio, fold-change, log ratio p-value, etc. for every transcript measured by the microarray. Using Rosetta Resolver, a single ratio comparison was compiled based on the results of the two fluorophore reversal hybridization performed in the context of this project. The ratios were calculated such that the Tx sample was in the numerator and the UnTx sample was in the denominator. A table was generated, saved as tab-delimited text files, and is provided on the DVD that accompanied this report in the “Objective—1” subdirectory or the “Data_Analysis” directory. These files contain the log ratio, fold-change, log ratio p-value, etc. for every transcript present on the microarray. […] A table for will be generated and provided as a tab-delimited text file. The file will contain the log ratio, fold-change, log ratio p-value, etc. for only the differentially expressed transcripts within the context of the comparison. […] These criteria were applied to the comparison made in Objective 1. A table was generated, saved as tab-delimited text files, and is provided on the DVD that accompanied this report in the “Objective—1” subdirectory or the “Data_Analysis” directory. […] Cell cultures: A human skin fibroblast cell culture (or cultures) will be obtained through the Coriell Cell Repository from the National Institute on Aging Cell Repository. […] Culture media: Cells will be grown in Minimal Essential Medium supplemented with 10% fetal bovine serum, 2 mM L-glutamine, 2 mM Glutamax I.

For `COC1=C(OC)C(=O)C(CCCCCCCCCCO)=C(C)C1=O` [Idebenone, 6-(10-hydroxydecyl)-2,3-dimethoxy-5-methyl-1,4-benzoquin-one], the “STOML2 Expression” value (Alone) was 1.2, the “TAGLN Expression” value (Alone) was −1.2 and the “TBXA2R Expression” value (Alone) was −1.1. For the same compound, the “TEP1 Expression” value (Alone) was 1.0, the “TERF1 Expression” value (Alone) was −1.0 and the “TERT expression” value (Alone) was 1.1. The “TFAP2A Expression” value (Alone) was −1.2, the “TFAP2B Expression” value (Alone) was 1.0 and the “TFAP2C Expression” value (Alone) was −1.1. The “TFRC Expression” value (Alone) was 1.1, the “TGFA Expression” value (Alone) was 1.0 and the “TGFB1 Expression” value (Alone) was 1.0. The “TGFBR2 Expression” value (Alone) was −1.3, the “TGM1 Expression” value (Alone) was −1.1 and the “TH Expression” value (Alone) was 1.6. The “THBS1 Expression” value (Alone) was −1.1, the “TIMP1 Expression” value (Alone) was −1.4 and the “TIMP2 Expression” value (Alone) was −1.4. For the same compound, the “TK1 Expression” value (Alone) was 1.6, the “TM4SF1 Expression” value (Alone) was −1.1 and the “TNF Expression” value (Alone) was 1.1. The “TNFRSF1A Expression” value (Alone) was −1.1, the “TNFRSF1B Expression” value (Alone) was −1.8 and the “TNFRSF11B Expression” value (Alone) was 1.0. For the same compound, the “TOP2A Expression” value (Alone) was 1.6, the “TYMS Expression” value (Alone) was 1.2 and the “UBE2C Expression” value (Alone) was 1.5. For the same compound, the “UBE2V1 Expression” value (Alone) was −1.1, the “VEGFC Expression” value (Alone) was 1.0 and the “XRCC6BP1 Expression” value (Alone) was 1.1. The “YWHAZ Expression” value (Alone) was 1.0, the “AKT1 Expression” value (Idebenone + UVB) was −1.6 and the “ALOX12 Expression” value (Idebenone + UVB) was 1.8. The “APOE Expression” value (Idebenone + UVB) was −1.2, the “ARG2 Expression” value (Idebenone + UVB) was 1.2 and the “ATOX1 Expression” value (Idebenone + UVB) was −1.0. For the same compound, the “CAMK1 Expression” value (Idebenone + UVB) was −1.7, the “CAT Expression” value (Idebenone + UVB) was −1.3 and the “CCNA1 Expression” value (Idebenone + UVB) was 1.0. The “CCS Expression” value (Idebenone + UVB) was −1.2, the “CDKN1A Expression” value (Idebenone + UVB) was −1.1 and the “CYBA Expression” value (Idebenone + UVB) was −1.2. For the same compound, the “CYGB Expression” value (Idebenone + UVB) was −1.4, the “DDAH2 Expression” value (Idebenone + UVB) was 1.0 and the “DLG4 Expression” value (Idebenone + UVB) was −1.0. The “DNCL1 Expression” value (Idebenone + UVB) was 1.0, the “DND1 Expression” value (Idebenone + UVB) was −1.0 and the “DUOX1 Expression” value (Idebenone + UVB) was 1.2. The “DUOX2 Expression” value (Idebenone + UVB) was 2.0, the “DUSP1 Expression” value (Idebenone + UVB) was 1.2 and the “EGFR Expression” value (Idebenone + UVB) was −1.0. The “EPX Expression” value (Idebenone + UVB) was −2.2, the “FOXM1 Expression” value (Idebenone + UVB) was −1.5 and the “GCH1 Expression” value (Idebenone + UVB) was −1.7. The “GCHFR Expression” value (Idebenone + UVB) was 1.0, the “GLA Expression” value (Idebenone + UVB) was 1.0 and the “GLRX2 Expression” value (Idebenone + UVB) was 1.0. For the same compound, the “GPR156 Expression” value (Idebenone + UVB) was 1.3, the “GPX1 Expression” value (Idebenone + UVB) was −1.1 and the “GPX2 Expression” value (Idebenone + UVB) was −1.2. The “GPX3 Expression” value (Idebenone + UVB) was −1.2, the “GPX4 Expression” value (Idebenone + UVB) was −1.1 and the “GPX5 Expression” value (Idebenone + UVB) was 1.4. For the same compound, the “GRIN2D Expression” value (Idebenone + UVB) was 1.1, the “GSS Expression” value (Idebenone + UVB) was −1.1 and the “HSP90AB1 Expression” value (Idebenone + UVB) was −1.3. The “IL8 Expression” value (Idebenone + UVB) was 1.0, the “IL10 Expression” value (Idebenone + UVB) was 1.1 and the “INS Expression” value (Idebenone + UVB) was 1.1. For the same compound, the “JUN Expression” value (Idebenone + UVB) was −1.1, the “KRT1 Expression” value (Idebenone + UVB) was 1.0 and the “LPO Expression” value (Idebenone + UVB) was 1.1. The “MBL2 Expression” value (Idebenone + UVB) was 1.0, the “MPO Expression” value (Idebenone + UVB) was 1.0 and the “MSRA Expression” value (Idebenone + UVB) was 1.2. For the same compound, the “MT3 Expression” value (Idebenone + UVB) was 1.1, the “MTL5 Expression” value (Idebenone + UVB) was −1.1 and the “MYB Expression” value (Idebenone + UVB) was 1.0. The “NCF1 Expression” value (Idebenone + UVB) was −1.2, the “NCF2 Expression” value (Idebenone + UVB) was 1.6 and the “NME5 Expression” value (Idebenone + UVB) was 1.2. For the same compound, the “NOS1 Expression” value (Idebenone + UVB) was 1.2, the “NOS2A Expression” value (Idebenone + UVB) was 1.1 and the “NOS3 Expression” value (Idebenone + UVB) was −1.0. The “NOSIP Expression” value (Idebenone + UVB) was −1.2, the “NOSTRIN Expression” value (Idebenone + UVB) was 1.0 and the “NOX5 Expression” value (Idebenone + UVB) was −1.2. For the same compound, the “NQO1 Expression” value (Idebenone + UVB) was −1.2, the “NRF1 Expression” value (Idebenone + UVB) was −1.4 and the “NUDT1 Expression” value (Idebenone + UVB) was −1.1. The “OXR1 Expression” value (Idebenone + UVB) was 1.1, the “PGC Expression” value (Idebenone + UVB) was 1.2 and the “PKAR1B Expression” value (Idebenone + UVB) was −1.0. For the same compound, the “PNKP Expression” value (Idebenone + UVB) was −1.3, the “PP3CA Expression” value (Idebenone + UVB) was 1.1 and the “PRDX2 Expression” value (Idebenone + UVB) was 1.0. The “PRDX6 Expression” value (Idebenone + UVB) was 1.1, the “PREX1 Expression” value (Idebenone + UVB) was −1.1 and the “PRG3 Expression” value (Idebenone + UVB) was −1.0. The “PRKCA Expression” value (Idebenone + UVB) was −1.1, the “PRNP Expression” value (Idebenone + UVB) was 1.0 and the “RNF7 Expression” value (Idebenone + UVB) was −1.0. For the same compound, the “SCARA3 Expression” value (Idebenone + UVB) was −1.0, the “SCRT2 Expression” value (Idebenone + UVB) was 1.3 and the “SELS Expression” value (Idebenone + UVB) was 1.0. The “SEPP1 Expression” value (Idebenone + UVB) was 1.0, the “SGK2 Expression” value (Idebenone + UVB) was −1.2 and the “SIRT2 Expression” value (Idebenone + UVB) was −1.1. For the same compound, the “SOD1 Expression” value (Idebenone + UVB) was −1.1, the “SOD2 Expression” value (Idebenone + UVB) was 1.0 and the “SOD3 Expression” value (Idebenone + UVB) was 1.1. The “SRXN1 Expression” value (Idebenone + UVB) was −1.1.
